{
  "source": "patent US20070218475A1",
  "about": "“Efficient drug screening for protein targets” (priority 2005, published 2007)",
  "key": {"[1]": {"molecular_target": "T1, Smo protein from Drosophila (Drosophila melanogaster, UniProt P91682)", "T1 construct": "expressed in transfected cells; host or cells: Cos-1", "T1 sequence (P91682 32-1036)": "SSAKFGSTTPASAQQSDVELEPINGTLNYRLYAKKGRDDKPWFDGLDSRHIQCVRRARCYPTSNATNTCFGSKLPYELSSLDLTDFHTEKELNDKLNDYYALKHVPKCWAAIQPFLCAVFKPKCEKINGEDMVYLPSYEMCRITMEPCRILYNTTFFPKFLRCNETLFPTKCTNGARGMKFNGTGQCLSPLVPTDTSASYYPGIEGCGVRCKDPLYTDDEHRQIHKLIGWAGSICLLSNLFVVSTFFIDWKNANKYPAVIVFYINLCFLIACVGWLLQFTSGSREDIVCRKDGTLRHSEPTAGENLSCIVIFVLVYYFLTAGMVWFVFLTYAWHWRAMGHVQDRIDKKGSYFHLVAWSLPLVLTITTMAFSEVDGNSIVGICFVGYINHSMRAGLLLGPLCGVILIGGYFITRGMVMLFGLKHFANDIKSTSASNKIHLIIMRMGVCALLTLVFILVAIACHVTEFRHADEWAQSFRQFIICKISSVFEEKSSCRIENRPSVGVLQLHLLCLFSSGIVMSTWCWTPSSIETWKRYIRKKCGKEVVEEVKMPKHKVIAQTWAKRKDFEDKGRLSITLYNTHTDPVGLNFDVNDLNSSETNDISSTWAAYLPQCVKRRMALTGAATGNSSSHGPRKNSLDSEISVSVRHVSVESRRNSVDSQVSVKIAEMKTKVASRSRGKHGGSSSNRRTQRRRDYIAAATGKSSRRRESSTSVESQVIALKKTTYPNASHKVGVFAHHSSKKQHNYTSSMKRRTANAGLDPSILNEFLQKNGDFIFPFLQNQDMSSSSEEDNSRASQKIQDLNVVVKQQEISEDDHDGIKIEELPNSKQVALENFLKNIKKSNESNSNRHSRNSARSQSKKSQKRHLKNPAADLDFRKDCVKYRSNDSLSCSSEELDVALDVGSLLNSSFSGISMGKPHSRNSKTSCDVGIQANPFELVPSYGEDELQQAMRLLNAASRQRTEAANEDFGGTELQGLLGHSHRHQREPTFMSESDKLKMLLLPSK", "test": "Fluorescence (BODIPY-cyclopamine) binding assay, Cos-1 cells expressing Drosophila Smo", "conditions": "flow cytometry", "protocol": "(§1) Fluorescence binding assay: Cos-1 cells were transfected in 6-well plates with the described expression vectors (1 μg/well), and after two days, incubated in DMEM containing 10% fetal bovine serum, 5 nM BODIPY-cyclopamine, and various concentrations of the indicated competitors for 4-6 h at 37° C. For flow cytometry experiments, the cells were then trypsinized, collected by centrifugation, resuspended in phenol red-free DMEM containing 0.5% bovine calf serum, and analyzed for green fluorescence (FACScan, Beckton Dickinson). A fluorescence intensity range that excludes non-transfected cells was then selected for quantification of specific BODIPY-cyclopamine binding (see brackets in FIGS. 2C, 2D, and 3A). Curve fitting analysis was performed with Kaleidograph (Synergy Software)."}, "mouse Ptch": {"molecular_target": "T2, mouse Ptch (Mus musculus, UniProt Q61115)", "T2 construct": "expressed in transfected cells; host or cells: Cos-1", "T2 sequence (Q61115 1-1434)": "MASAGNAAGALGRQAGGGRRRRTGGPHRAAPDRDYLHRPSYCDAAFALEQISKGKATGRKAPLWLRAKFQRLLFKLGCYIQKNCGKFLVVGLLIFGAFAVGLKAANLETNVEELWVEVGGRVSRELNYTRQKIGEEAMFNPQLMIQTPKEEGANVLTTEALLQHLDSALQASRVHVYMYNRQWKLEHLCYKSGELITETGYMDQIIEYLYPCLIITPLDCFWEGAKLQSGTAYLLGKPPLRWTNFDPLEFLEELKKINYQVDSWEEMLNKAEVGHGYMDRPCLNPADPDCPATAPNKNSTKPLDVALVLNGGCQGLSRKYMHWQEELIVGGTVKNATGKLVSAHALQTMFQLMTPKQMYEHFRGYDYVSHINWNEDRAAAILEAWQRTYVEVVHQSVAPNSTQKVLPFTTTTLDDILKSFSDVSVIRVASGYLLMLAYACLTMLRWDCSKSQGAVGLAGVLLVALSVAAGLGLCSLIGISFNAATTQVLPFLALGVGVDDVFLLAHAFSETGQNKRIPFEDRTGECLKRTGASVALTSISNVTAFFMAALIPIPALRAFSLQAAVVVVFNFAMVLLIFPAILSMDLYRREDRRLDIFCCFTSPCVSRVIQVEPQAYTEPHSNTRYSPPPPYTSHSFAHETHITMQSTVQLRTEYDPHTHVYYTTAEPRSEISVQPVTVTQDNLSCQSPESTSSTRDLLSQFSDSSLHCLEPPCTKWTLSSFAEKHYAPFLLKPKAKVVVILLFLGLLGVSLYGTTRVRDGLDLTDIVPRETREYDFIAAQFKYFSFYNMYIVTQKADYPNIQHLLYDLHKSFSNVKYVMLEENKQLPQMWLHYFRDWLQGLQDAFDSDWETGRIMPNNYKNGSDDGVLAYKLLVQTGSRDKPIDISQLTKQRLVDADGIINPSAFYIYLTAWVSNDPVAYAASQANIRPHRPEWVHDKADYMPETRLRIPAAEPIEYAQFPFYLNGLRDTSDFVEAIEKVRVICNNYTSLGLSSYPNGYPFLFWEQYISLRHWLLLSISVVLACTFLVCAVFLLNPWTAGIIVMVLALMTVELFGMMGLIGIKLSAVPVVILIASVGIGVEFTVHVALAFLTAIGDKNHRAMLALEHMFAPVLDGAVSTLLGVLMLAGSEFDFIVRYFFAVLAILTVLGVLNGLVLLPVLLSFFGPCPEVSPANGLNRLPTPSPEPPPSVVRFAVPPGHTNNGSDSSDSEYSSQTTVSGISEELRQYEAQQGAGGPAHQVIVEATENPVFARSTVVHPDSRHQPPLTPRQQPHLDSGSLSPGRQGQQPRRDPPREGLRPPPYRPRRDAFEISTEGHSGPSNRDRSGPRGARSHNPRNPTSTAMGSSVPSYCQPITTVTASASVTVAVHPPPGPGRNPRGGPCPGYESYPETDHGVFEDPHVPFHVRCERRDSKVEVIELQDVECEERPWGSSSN", "test": "Fluorescence (BODIPY-cyclopamine) binding assay, Cos-1 cells expressing Ptch", "conditions": "flow cytometry", "protocol": "as §1"}, "SmoΔCRD": {"molecular_target": "T3, SmoΔCRD (Mus musculus, UniProt P56726, DEL68-182)", "T3 construct": "expressed in transfected cells; host or cells: Cos-1", "T3 sequence (P56726 with tags, fused parts or gaps DEL68-182)": "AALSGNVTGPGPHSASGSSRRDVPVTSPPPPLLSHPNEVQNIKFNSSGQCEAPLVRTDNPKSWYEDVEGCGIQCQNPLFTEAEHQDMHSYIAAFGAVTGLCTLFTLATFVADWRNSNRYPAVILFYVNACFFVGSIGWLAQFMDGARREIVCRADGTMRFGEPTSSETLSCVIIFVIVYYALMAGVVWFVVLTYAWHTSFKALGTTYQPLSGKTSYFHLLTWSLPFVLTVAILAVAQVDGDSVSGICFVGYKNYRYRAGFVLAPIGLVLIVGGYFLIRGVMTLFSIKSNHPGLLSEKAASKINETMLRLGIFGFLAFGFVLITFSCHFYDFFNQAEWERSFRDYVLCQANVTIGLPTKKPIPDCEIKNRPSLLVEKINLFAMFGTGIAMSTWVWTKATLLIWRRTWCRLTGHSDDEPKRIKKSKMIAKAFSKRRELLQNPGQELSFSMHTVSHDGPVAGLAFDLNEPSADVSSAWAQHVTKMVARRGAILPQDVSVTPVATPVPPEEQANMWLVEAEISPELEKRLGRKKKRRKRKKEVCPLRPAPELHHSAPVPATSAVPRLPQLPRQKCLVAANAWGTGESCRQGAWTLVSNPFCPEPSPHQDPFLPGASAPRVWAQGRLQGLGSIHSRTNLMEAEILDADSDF", "test": "Fluorescence (BODIPY-cyclopamine) binding assay, Cos-1 cells expressing SmoΔCRD", "conditions": "Cos-1 cells, flow cytometry", "from_the_text": "Preparation of Smo fusion proteins and deletion mutants: Both Smo-Myc3 and SmoA1-Myc3 are C-terminally fused to three consecutive Myc epitopes. […] Smo-GFP is comprised of green fluorescent protein fused to the C-terminus of Smo, and the fluorescent proteins in SmoA1-YFP, and SmoA1-GFP are similarly fused to the C-terminus of SmoA1. All constructs were generated by PCR and verified by DNA sequencing.\nFor flow cytometry experiments, the cells were then trypsinized, collected by centrifugation, resuspended in phenol red-free DMEM containing 0.5% bovine calf serum, and analyzed for green fluorescence (FACScan, Beckton Dickinson). […] Curve fitting analysis was performed with Kaleidograph (Synergy Software)."}},
  "data": [
    {"smiles": "CC1=C2CC3C(CC=C4C[C@@H](O)CCC43C)C2CCC12O[C@@H]1CC(C)CN(CCNC(=O)CCCCCNC(=O)CCC3=[N+]4C(=Cc5c(C)cc(C)n5[B-]4(F)F)C=C3)C1C2C", "note": "(stereo partly drawn) [BODIPY-cyclopamine]", "values": [
      {"measurement": "binding to cells expressing Drosophila Smo", "setting": "[1]", "result": "did not bind"},
      {"measurement": "binding to cells expressing mouse Ptch", "setting": "mouse Ptch", "result": "did not bind"},
      {"measurement": "binding to cells expressing SmoΔCRD", "setting": "SmoΔCRD", "result": "can bind"}
    ]}
  ]
}
